Measured values as given in US20250313548A1 (Actio Biosciences, Inc., priority 2023, published 2025).

Target: human, KCNT1 (Homo sapiens (Human), UniProt Q5JUK3)
Assay: FLIPR Tl/K Flux Assay
Type: cell-based
Conditions: HEK293 cells stably expressing human KCNT1; Tl+ flux stimulated with EC80 of agonist Loxapine
Procedure, shortened: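 HEK293 cells stably expressing human KCNT1 were loaded with FLIPR potassium dye in HEPES/HBSS pH 7.4 with 5 mM probenecid, 1 h at 25 °C, then given test compound for 30 min at 25 °C. Tl+ flux was triggered with chloride-free buffer containing Tl+ and EC80 loxapine and read 160 s. IC50 came from Hill fits of % inhibition.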

Sequence of human, KCNT1 (Q5JUK3 whole entry): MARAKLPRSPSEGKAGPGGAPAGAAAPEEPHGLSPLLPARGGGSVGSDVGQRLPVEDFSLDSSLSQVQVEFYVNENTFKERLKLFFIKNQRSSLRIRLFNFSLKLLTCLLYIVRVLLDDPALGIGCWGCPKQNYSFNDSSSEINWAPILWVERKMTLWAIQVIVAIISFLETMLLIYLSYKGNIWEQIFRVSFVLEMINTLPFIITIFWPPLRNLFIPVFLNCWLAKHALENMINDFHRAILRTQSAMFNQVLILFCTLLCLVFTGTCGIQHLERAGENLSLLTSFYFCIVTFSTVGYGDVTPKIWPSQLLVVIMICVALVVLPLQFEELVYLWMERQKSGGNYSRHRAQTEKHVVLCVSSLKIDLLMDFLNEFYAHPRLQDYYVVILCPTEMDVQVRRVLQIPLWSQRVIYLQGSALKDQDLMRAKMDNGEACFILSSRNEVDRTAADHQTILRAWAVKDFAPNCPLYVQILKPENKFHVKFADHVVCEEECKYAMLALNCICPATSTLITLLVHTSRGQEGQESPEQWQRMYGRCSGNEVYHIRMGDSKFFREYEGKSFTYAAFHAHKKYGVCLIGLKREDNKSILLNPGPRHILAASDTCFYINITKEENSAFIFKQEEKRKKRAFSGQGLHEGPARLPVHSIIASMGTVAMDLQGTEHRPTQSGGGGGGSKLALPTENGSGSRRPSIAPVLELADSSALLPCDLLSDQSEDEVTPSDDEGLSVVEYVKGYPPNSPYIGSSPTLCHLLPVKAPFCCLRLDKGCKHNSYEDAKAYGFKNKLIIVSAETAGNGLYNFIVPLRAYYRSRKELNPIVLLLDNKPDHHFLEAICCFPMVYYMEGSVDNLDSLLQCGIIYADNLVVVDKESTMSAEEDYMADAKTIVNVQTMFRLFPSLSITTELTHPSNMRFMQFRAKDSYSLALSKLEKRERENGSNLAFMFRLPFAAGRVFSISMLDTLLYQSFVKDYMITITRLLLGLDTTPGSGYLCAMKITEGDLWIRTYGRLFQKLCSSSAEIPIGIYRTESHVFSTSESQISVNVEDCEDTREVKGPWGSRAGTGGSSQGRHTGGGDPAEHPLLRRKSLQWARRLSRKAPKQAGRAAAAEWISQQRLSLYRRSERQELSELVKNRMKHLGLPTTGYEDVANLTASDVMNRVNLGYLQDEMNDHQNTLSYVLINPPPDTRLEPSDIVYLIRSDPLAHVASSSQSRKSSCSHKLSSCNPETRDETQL

Row | IC50 [nM] | SMILES
1 | > 1000 | Cc1ccn(CC(=O)N[C@H]2CCCn3nc(-c4ccnc(C(F)(F)F)c4)cc32)n1 [Compound I-423a]
2 | < 250 | Cc1nn2ccccc2c1C(=O)N[C@H]1CCCn2nc(-c3ccnc(C(F)(F)F)c3)cc21 [Compound I-434a]
3 | < 250 | Cn1nc(C(F)(F)F)cc1C(=O)N[C@H]1CCCc2nc(-c3ccnc(C(F)(F)F)c3)ccc21 (single isomer, unassigned) [I-149*]
4 | < 250 | Cn1nc(C(F)(F)F)nc1C(=O)N[C@H]1CCCn2nc(-c3cc(C4CC4)ncc3F)cc21 [Compound I-495a, (S)-N-(2-(2-Cyclopropyl-5-fluoropyridin-4-yl)-4,5,6,7-tetrahydropyrazolo[1,5-a]pyridin-4-yl)-1-methyl-3-(trifluoromethyl)-1H-1,2,4-triazole-5-carboxamide]
5 | < 250 | N#Cc1cccc(C(=O)N[C@H]2CCc3nn(-c4ccnc(C(F)(F)F)c4)cc32)c1 [Compound I-454a]
6 | < 250 | O=C(N[C@H]1CCc2nn(-c3ccnc(C(F)(F)F)c3)cc21)C1CCC(F)(F)CC1 [Compound I-106a]
7 | 250 to 500 | Cn1ncc(C(=O)N[C@H]2CCCn3nc(-c4ccnc(C(F)(F)F)c4)cc32)c1Cl [Compound I-407a]
8 | > 1000 | Cn1ncnc1C(=O)N[C@H]1CCn2nc(-c3ccnc(C(F)(F)F)c3)cc21 [Compound I-225a]
9 | < 250 | Cn1nc(C(F)(F)F)cc1C(=O)NC1CCCc2nn(-c3ccnc(C(F)(F)F)c3)cc21 (racemic) [Compound I-4, (rac)-1-Methyl-3-(trifluoromethyl)-N-(2-(2-(trifluoromethyl)pyridin-4-yl)-4,5,6,7-tetrahydro-2H-indazol-4-yl)-1H-pyrazole-5-carboxamide]
10 | < 250 | COc1cc(-c2nc3c(o2)[C@@H](NC(=O)c2cccc(C(F)(F)F)c2)CCC3)c(F)cn1 [Compound I-177a, (S)-N-(2-(5-Fluoro-2-methoxypyridin-4-yl)-4,5,6,7-tetrahydrobenzo[d]oxazol-7-yl)-3-(trifluoromethyl)benzamide]
11 | < 250 | CCOc1cc(C(=O)N[C@H]2CCn3nc(-c4ccnc(C5CC5)c4)cc32)ccn1 [Compound I-541a, (S)-N-(2-(2-Cyclopropylpyridin-4-yl)-5,6-dihydro-4H-pyrrolo[1,2-b]pyrazol-4-yl)-2-ethoxyisonicotinamide]
12 | < 250 | Cc1cc(C#N)cc(C(=O)N[C@H]2CCCn3nc(-c4ccnc(C(F)(F)F)c4)cc32)c1 [Compound I-418a]
13 | < 250 | Cn1nc(C(F)(F)F)cc1C(=O)N[C@H]1CCCc2oc(-c3cc(C4CC4)ncc3F)nc21 [Compound I-217a, (S)-N-(2-(2-Cyclopropyl-5-fluoropyridin-4-yl)-4,5,6,7-tetrahydrobenzo[d]oxazol-4-yl)-1-methyl-3-(trifluoromethyl)-1H-pyrazole-5-carboxamide]
14 | > 1000 | Cn1nc(C(F)(F)F)cc1C(=O)N[C@@H]1CCCc2cn(-c3ccnc(C(F)(F)F)c3)nc21 [Compound I-87b]

Continued, compound first:

Row | SMILES | IC50 [nM]
15 | Cn1nc(C2CC2)cc1C(=O)N[C@H]1CCCCn2nc(-c3ccnc(C(F)(F)F)c3)cc21 [Compound I-388a] | < 250
16 | Cn1nc(C(F)(F)F)nc1C(=O)N[C@H]1CCCn2nc(-c3ccnc(C4CC4)c3)cc21 [Compound I-499a, (S)-N-(2-(2-Cyclopropylpyridin-4-yl)-4,5,6,7-tetrahydropyrazolo[1,5-a]pyridin-4-yl)-1-methyl-3-(trifluoromethyl)-1H-1,2,4-triazole-5-carboxamide] | < 250
17 | COc1cc(-c2cc3n(n2)CCC[C@@H]3NC(=O)c2cc(C#N)cc(C(F)(F)F)c2)ccn1 [Compound I-284a, (S)-3-Cyano-N-(2-(2-methoxypyridin-4-yl)-4,5,6,7-tetrahydropyrazolo[1,5-a]pyridin-4-yl)-5-(trifluoromethyl)benzamide] | < 250
18 | Cn1nc(C(F)(F)F)nc1C(=O)N[C@H]1CCCCn2nc(-c3ccnc(C(F)(F)F)c3)cc21 [Compound I-324a, (S)-1-Methyl-3-(trifluoromethyl)-N-(2-(2-(trifluoromethyl)pyridin-4-yl)-5,6,7,8-tetrahydro-4H-pyrazolo[1,5-a]azepin-4-yl)-1H-1,2,4-triazole-5-carboxamide] | < 250
19 | O=C(N[C@H]1CCn2nc(-c3cc(C(F)(F)F)ncc3F)cc21)C12CC(C(F)(F)F)(C1)C2 [Compound I-493a, (S)-N-(2-(5-Fluoro-2-(trifluoromethyl)pyridin-4-yl)-5,6-dihydro-4H-pyrrolo[1,2-b]pyrazol-4-yl)-3-(trifluoromethyl)bicyclo[1.1.1]pentane-1-carboxamide] | < 250
20 | O=C(N[C@@H]1CCc2nn(-c3ccnc(C(F)(F)F)c3)cc21)C1CCC(F)(F)CC1 [Compound I-106b] | > 1000
21 | Cn1nc(C(F)(F)F)cc1C(=O)N[C@H]1CCCCc2nn(-c3ccnc(C4CC4)c3)cc21 [Compound I-56a] | < 250
22 | COc1cc(-c2cc3n(n2)CC[C@@H]3NC(=O)c2cnc(C(F)(F)F)cn2)c(F)cn1 [Compound I-575a, (S)-N-(2-(5-Fluoro-2-methoxypyridin-4-yl)-5,6-dihydro-4H-pyrrolo[1,2-b]pyrazol-4-yl)-5-(trifluoromethyl)pyrazine-2-carboxamide] | < 250
23 | Cc1cnc(C(F)(F)F)cc1-c1cc2n(n1)CCC[C@@H]2NC(=O)c1cc(C(F)(F)F)nn1C [Compound I-122a, (S)-1-Methyl-N-(2-(5-methyl-2-(trifluoromethyl)pyridin-4-yl)-4,5,6,7-tetrahydropyrazolo[1,5-a]pyridin-4-yl)-3-(trifluoromethyl)-1H-pyrazole-5-carboxamide] | < 250
24 | CC1(C)CC(C(=O)N[C@H]2CCn3nc(-c4cc(C(F)(F)F)ncc4F)cc32)C1 [Compound I-523a, (S)-N-(2-(5-Fluoro-2-(trifluoromethyl)pyridin-4-yl)-5,6-dihydro-4H-pyrrolo[1,2-b]pyrazol-4-yl)-3,3-dimethylcyclobutane-1-carboxamide] | < 250
25 | O=C(N[C@H]1CCCn2nc(-c3cc(C(F)(F)F)ncc3F)cc21)c1ccnc(OC(F)(F)F)c1 [Compound I-199a, (S)-N-(2-(5-Fluoro-2-(trifluoromethyl)pyridin-4-yl)-4,5,6,7-tetrahydropyrazolo[1,5-a]pyridin-4-yl)-2-(trifluoromethoxy)isonicotinamide] | < 250
26 | Cc1cc(C(=O)N[C@H]2CCCn3nc(-c4ccnc(C(F)(F)F)c4)cc32)n(C(F)F)n1 [Compound I-426a] | < 250
27 | O=C(N[C@H]1CCCc2nc(-c3ccnc(C(F)(F)F)c3)oc21)c1cc(Cl)cc(Cl)c1 [Compound I-185a, (S)-3,5-Dichloro-N-(2-(2-(trifluoromethyl)pyridin-4-yl)-4,5,6,7-tetrahydrobenzo[d]oxazol-7-yl)benzamide] | < 250
28 | O=C(N[C@H]1CCn2nc(-c3cc(C(F)(F)F)ncc3F)cc21)c1cccc(C(F)(F)F)c1 [Compound I-139a, (S)-N-(2-(5-Fluoro-2-(trifluoromethyl)pyridin-4-yl)-5,6-dihydro-4H-pyrrolo[1,2-b]pyrazol-4-yl)-3-(trifluoromethyl)benzamide] | < 250
29 | COc1cc(C(=O)N[C@H]2CCCn3nc(-c4ccnc(C(F)(F)F)c4)cc32)cc(OC)n1 [Compound I-124a, (S)-2,6-Dimethoxy-N-(2-(2-(trifluoromethyl)pyridin-4-yl)-4,5,6,7-tetrahydropyrazolo[1,5-a]pyridin-4-yl)isonicotinamide] | < 250
30 | Cc1nc(C(=O)N[C@H]2CCCc3oc(-c4ccnc(C5CC5)c4)nc32)n(C)n1 [Compound I-227a, (S)-N-(2-(2-Cyclopropylpyridin-4-yl)-4,5,6,7-tetrahydrobenzo[d]oxazol-4-yl)-1,3-dimethyl-1H-1,2,4-triazole-5-carboxamide] | > 1000
31 | CC(F)(F)c1cc(C(=O)N[C@H]2CCn3nc(-c4ccnc(C(F)(F)F)c4)cc32)ccn1 [Compound I-528a, (S)-2-(1,1-Difluoroethyl)-N-(2-(2-(trifluoromethyl)pyridin-4-yl)-5,6-dihydro-4H-pyrrolo[1,2-b]pyrazol-4-yl)isonicotinamide] | < 250
32 | Cn1nc(C(F)F)cc1C(=O)NC1CCCc2nn(-c3ccnc(C(F)(F)F)c3)cc21 (racemic) [Compound I-12, (rac)-3-(Difluoromethyl)-1-methyl-N-(2-(2-(trifluoromethyl)pyridin-4-yl)-4,5,6,7-tetrahydro-2H-indazol-4-yl)-1H-pyrazole-5-carboxamide] | < 250
33 | Cc1cnc(C(F)(F)F)cc1-c1nc2c(o1)CCC[C@@H]2NC(=O)c1cc(C(F)(F)F)nn1C [Compound I-178a, (S)-1-Methyl-N-(2-(5-methyl-2-(trifluoromethyl)pyridin-4-yl)-4,5,6,7-tetrahydrobenzo[d]oxazol-4-yl)-3-(trifluoromethyl)-1H-pyrazole-5-carboxamide] | < 250
34 | O=C(N[C@H]1CCn2nc(-c3ccnc(C(F)(F)F)c3)cc21)c1cnn(C(F)(F)F)c1 [Compound I-573a, (S)-1-(Trifluoromethyl)-N-(2-(2-(trifluoromethyl)pyridin-4-yl)-5,6-dihydro-4H-pyrrolo[1,2-b]pyrazol-4-yl)-1H-pyrazole-4-carboxamide] | < 250
35 | O=C(N[C@H]1CCn2nc(-c3ccnc(C(F)(F)F)c3)cc21)c1cc(Cl)cc(C(F)(F)F)c1 [Compound I-451a] | < 250
36 | COc1cc(-c2cc3n(n2)CC[C@@H]3NC(=O)c2cc(C(F)(F)F)nn2C)c(C(F)(F)F)cn1 [Compound I-172a, (S)-N-(2-(2-Methoxy-5-(trifluoromethyl)pyridin-4-yl)-5,6-dihydro-4H-pyrrolo[1,2-b]pyrazol-4-yl)-1-methyl-3-(trifluoromethyl)-1H-pyrazole-5-carboxamide] | < 250
37 | O=C(N[C@H]1CCn2nc(-c3ccnc(C(F)(F)F)c3)cc21)c1cc(F)cc(F)c1 [Compound I-120a, (S)-3,5-difluoro-N-(2-(2-(trifluoromethyl)pyridin-4-yl)-5,6-dihydro-4H-pyrrolo[1,2-b]pyrazol-4-yl)benzamide] | < 250
38 | O=C(N[C@H]1CCCc2nn(-c3ccnc(C4CC4)c3)cc21)c1cc(Cl)cc(C(F)(F)F)c1 [Compound I-5a] | < 250
